From patent US20060264460A1 (Wyeth, priority 2005, published 2006)

What follows are compounds tested against T1, human Cot/Tpl2 kinase (Homo sapiens, UniProt P41279) (assay: Tpl2/Cot kinase assay: GST-MEK1 phosphorylation detected by ELISA (DELFIA Eu)). Settings: Tpl2/Cot kinase, GST-MEK1 substrate, 50 uM ATP.
T1 construct: human Cot/Tpl2 kinase construct encoding residues 30-398; 6His (N); made in house; host or cells: Sf9 insect cells, baculovirus system (BD Biosciences)
Type: biochemical
How it was run: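 Substrate phosphorylation (GST-MEK1 Ser217/221) quantified by DELFIA europium ELISA, yielding IC50 values. Reaction: 1 h at 30° C, pH 7.2 MOPS buffer, 50 uM ATP, 35 nM GST-MEK1, 0.4 nM monomeric His-Tpl2 purified from Sf9 cells, compounds at 1% final DMSO; stopped with EDTA.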

T1 sequence (P41279 30-398): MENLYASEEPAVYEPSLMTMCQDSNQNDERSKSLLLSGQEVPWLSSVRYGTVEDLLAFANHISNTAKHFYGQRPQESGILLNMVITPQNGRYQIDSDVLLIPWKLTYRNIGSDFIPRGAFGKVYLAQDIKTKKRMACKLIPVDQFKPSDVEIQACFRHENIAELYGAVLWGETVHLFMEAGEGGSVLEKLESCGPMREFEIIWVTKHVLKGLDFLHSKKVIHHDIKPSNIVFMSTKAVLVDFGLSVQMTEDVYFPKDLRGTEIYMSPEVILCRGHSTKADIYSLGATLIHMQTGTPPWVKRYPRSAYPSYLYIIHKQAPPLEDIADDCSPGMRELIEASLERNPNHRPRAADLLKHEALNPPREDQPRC

| Structure (SMILES) | IC50 |
| --- | --- |
| CN1CC(CCn2cc(CNc3cc(Cl)c4ncc(C#N)c(Nc5ccc(F)c(Cl)c5)c4c3)nn2)N(C)C1=O (stereo not shown) [Example 790] | 6.1 nM |
| CCN1CC(CCn2cc(CNc3cc(Cl)c4ncc(C#N)c(Nc5ccc(F)c(Cl)c5)c4c3)nn2)N(c2ccccc2)C1=O (stereo not shown) [Example 791] | 25 nM |
| CCN1CC(CCn2cc(CNc3cc(Cl)c4ncc(C#N)c(Nc5ccc(F)c(Cl)c5)c4c3)nn2)N(c2ccccc2)C1=S (stereo not shown) [Example 792] | 130 nM |
| CN1CCCN(CCCn2cc(CNc3cc(Br)c4ncc(C#N)c(Nc5ccc(F)c(Cl)c5)c4c3)nn2)CC1 [Example 793] | 70 nM |
| CN1CCCN(CCCn2cc(CNc3cc(Cl)c4ncc(C#N)c(Nc5ccc(F)c(Cl)c5)c4c3)nn2)CC1 [Example 794] | 48 nM |
| CN1CCN(CCCn2cc(CNc3cc(Br)c4ncc(C#N)c(Nc5ccc(F)c(Cl)c5)c4c3)nn2)CC1 [Example 795] | 29 nM |
| CN1CCN(CCCn2cc(CNc3cc(Cl)c4ncc(C#N)c(Nc5ccc(F)c(Cl)c5)c4c3)nn2)CC1 [Example 796] | 39 nM |
| N#Cc1cnc2c(Cl)cc(NCC(O)CO)cc2c1Nc1ccc(F)c(Cl)c1 (stereo not shown) [Example 797] | 590 nM |
| N#Cc1cnc2c(Br)cc(NCC(=O)O)cc2c1Nc1ccc(F)c(Cl)c1 [Example 798] | 140 nM |
| N#Cc1cnc2c(Br)cc(NCc3cn(C4CCCC4)cn3)cc2c1Nc1ccc(F)c(Cl)c1 [Example 799] | 230 nM |
| CC1CC(C)CN(CCCn2cc(CNc3cc(Cl)c4ncc(C#N)c(Nc5ccc(F)c(Cl)c5)c4c3)nn2)C1 (stereo not shown) [Example 800] | 150 nM |
| CN(CCCn1cc(CNc2cc(Cl)c3ncc(C#N)c(Nc4ccc(F)c(Cl)c4)c3c2)nn1)C1CCCCC1 [Example 801] | 1.8 nM |
| CC(=O)Nc1ccc(-n2cc(CNc3cc(Cl)c4ncc(C#N)c(Nc5ccc(F)c(Cl)c5)c4c3)nn2)cc1 [Example 802] | 35 nM |
| N#Cc1cnc2c(Cl)cc(NC3CCCC3n3cc(CCO)nn3)cc2c1Nc1ccc(F)c(Cl)c1 (stereo not shown) [Example 803] | 67 nM |
| CC(C)n1cnc(CNc2cc(Br)c3ncc(C#N)c(Nc4ccc(F)c(Cl)c4)c3c2)c1 [Example 804] | 68 nM |
| N#Cc1cnc2c(Br)cc(NCc3cn(COCc4ccccc4)nn3)cc2c1Nc1ccc(F)c(Cl)c1 [Example 805] | > 3000 nM |
| CC(CNc1cc(Cl)c2ncc(C#N)c(Nc3ccc(F)c(Cl)c3)c2c1)c1ccncc1 (stereo not shown) [Example 806] | 200 nM |
| N#Cc1cnc2c(Cl)cc(NCc3cn(COCc4ccccc4)nn3)cc2c1Nc1ccc(F)c(Cl)c1 [Example 807] | > 3000 nM |
| CCN1CCC[C@H]1CNc1cc(Cl)c2ncc(C#N)c(Nc3ccc(F)c(Cl)c3)c2c1 [Example 809] | 330 nM |
| CC(=O)N1CCC[C@H]1CNc1cc(Cl)c2ncc(C#N)c(Nc3ccc(F)c(Cl)c3)c2c1 [Example 810] | 54 nM |
| CCN(C[C@@H]1CCCN1CC)c1cc(Cl)c2ncc(C#N)c(Nc3ccc(F)c(Cl)c3)c2c1 [Example 811] | 1200 nM |
| CC1(C)OC[C@H](CNc2cc(Cl)c3ncc(C#N)c(Nc4ccc(F)c(Cl)c4)c3c2)O1 [Example 812] | 200 nM |
| CC(C)NC(=O)Cn1cc(CNc2cc(Cl)c3ncc(C#N)c(Nc4ccc(F)c(Cl)c4)c3c2)nn1 [Example 813] | 3.5 nM |
| N#Cc1cnc2c(Cl)cc(NCc3cn(CC(=O)N4CCCCCC4)nn3)cc2c1Nc1ccc(F)c(Cl)c1 [Example 814] | 4.6 nM |

| Structure (SMILES) | IC50 |
| --- | --- |
| N#Cc1cnc2c(Cl)cc(NCc3cn(CC(=O)N4CCCCCCC4)nn3)cc2c1Nc1ccc(F)c(Cl)c1 [Example 815] | 5.3 nM |
| COCCNC(=O)Cn1cc(CNc2cc(Cl)c3ncc(C#N)c(Nc4ccc(F)c(Cl)c4)c3c2)nn1 [Example 816] | 15 nM |
| CN1CCCC1CCNC(=O)Cn1cc(CNc2cc(Cl)c3ncc(C#N)c(Nc4ccc(F)c(Cl)c4)c3c2)nn1 (stereo not shown) [Example 817] | 6.9 nM |
| CN(C)CCNC(=O)Cn1cc(CNc2cc(Cl)c3ncc(C#N)c(Nc4ccc(F)c(Cl)c4)c3c2)nn1 [Example 818] | 6.8 nM |
| N#Cc1cnc2c(Cl)cc(NCc3cn(CC(=O)NCc4cccnc4)nn3)cc2c1Nc1ccc(F)c(Cl)c1 [Example 819] | 0.8 nM |
| N#Cc1cnc2c(Cl)cc(NCc3cn(CC(=O)NCCN4CCOCC4)nn3)cc2c1Nc1ccc(F)c(Cl)c1 [Example 820] | 14 nM |
| N#Cc1cnc2c(Cl)cc(NCc3cn(CC(=O)Nc4cccnc4)nn3)cc2c1Nc1ccc(F)c(Cl)c1 [Example 821] | 2.7 nM |
| CN1CCN(C(=O)Cn2cc(CNc3cc(Cl)c4ncc(C#N)c(Nc5ccc(F)c(Cl)c5)c4c3)nn2)CC1 [Example 822] | 13 nM |
| CN1CCCC1CCn1cc(CN(Cc2cn(CCC3CCCN3C)nn2)c2cc(Br)c3ncc(C#N)c(Nc4ccc(F)c(Cl)c4)c3c2)nn1 (stereo not shown) [Example 823] | 860 nM |
| N#Cc1cnc2c(Cl)cc(NCC3CCNCC3)cc2c1Nc1ccc(F)c(Cl)c1 [Example 824] | 1240 nM |
| CN1CCC(Cn2cc(CNc3cc(Cl)c4ncc(C#N)c(Nc5ccc(F)c(Cl)c5)c4c3)nn2)CC1 [Example 825] | 37 nM |
| CCN1CCC(Cn2cc(CNc3cc(Cl)c4ncc(C#N)c(Nc5ccc(F)c(Cl)c5)c4c3)nn2)CC1 [Example 826] | 35 nM |
| CC(C)N1CCC(Cn2cc(CNc3cc(Cl)c4ncc(C#N)c(Nc5ccc(F)c(Cl)c5)c4c3)nn2)CC1 [Example 827] | 11 nM |
| CN(C)C(=O)N1CCC(Cn2cc(CNc3cc(Cl)c4ncc(C#N)c(Nc5ccc(F)c(Cl)c5)c4c3)nn2)CC1 [Example 828] | 2.6 nM |
| CN(C)C(=O)N1CCC(CCn2cc(CNc3cc(Cl)c4ncc(C#N)c(Nc5ccc(F)c(Cl)c5)c4c3)nn2)CC1 [Example 830] | 19 nM |
| CCNC(=O)N1CCC(CCn2cc(CNc3cc(Cl)c4ncc(C#N)c(Nc5ccc(F)c(Cl)c5)c4c3)nn2)CC1 [Example 831] | 9.3 nM |
| CC(=O)N1CCC(CCn2cc(CNc3cc(Cl)c4ncc(C#N)c(Nc5ccc(F)c(Cl)c5)c4c3)nn2)CC1 [Example 832] | 1.2 nM |
| N#Cc1cnc2c(Br)cc(NCc3cn(CCOC(N)=O)nn3)cc2c1Nc1ccc(F)c(Cl)c1 [Example 833] | 9 nM |
| CN(C)C(=O)Cn1cc(CNc2cc(Br)c3ncc(C#N)c(Nc4ccc(F)c(Cl)c4)c3c2)nn1 [Example 834] | 14 nM |
| CCN(Cc1cn(CC(=O)N(C)C)nn1)c1cc(Br)c2ncc(C#N)c(Nc3ccc(F)c(Cl)c3)c2c1 [Example 835] | 9.1 nM |
| Cc1cc(Cn2cc(CNc3cc(Cl)c4ncc(C#N)c(Nc5ccc(F)c(Cl)c5)c4c3)nn2)ccn1 [Example 837] | 11 nM |
| N#Cc1cnc2c(Br)cc(NCc3cn(C4CN5CCC4CC5)nn3)cc2c1Nc1ccc(F)c(Cl)c1 (stereo not shown) [Example 838] | 10 nM |
| Cc1ncccc1Cn1cc(CNc2cc(Cl)c3ncc(C#N)c(Nc4ccc(F)c(Cl)c4)c3c2)nn1 [Example 840] | 10 nM |
| N#Cc1cnc2c(Cl)cc(NCc3cn(CCCN4CCC(F)(F)CC4)nn3)cc2c1Nc1ccc(F)c(Cl)c1 [Example 841] | 29 nM |

| Structure (SMILES) | IC50 |
| --- | --- |
| Cc1c(Cn2cc(CNc3cc(Cl)c4ncc(C#N)c(Nc5ccc(F)c(Cl)c5)c4c3)nn2)ccc[n+]1[O-] [Example 842] | 0.9 nM |
| CC(=O)N(CCNc1cc(Cl)c2ncc(C#N)c(Nc3ccc(F)c(Cl)c3)c2c1)Cc1cccnc1 [Example 843] | 58 nM |
| CC(=O)N(CCNc1cc(Cl)c2ncc(C#N)c(Nc3ccc(F)c(Cl)c3)c2c1)Cc1ccncc1 [Example 844] | 60 nM |
| N#Cc1cnc2c(Cl)cc(NCc3ccncc3)cc2c1Nc1ccc(F)c(Cl)c1 [Example 845] | 22 nM |
| CC(=O)N(CCNc1cc(Cl)c2ncc(C#N)c(Nc3ccc(F)c(Cl)c3)c2c1)Cc1ccccn1 [Example 846] | 170 nM |
| CC(C)Cn1cc(CNc2cc(Cl)c3ncc(C#N)c(Nc4ccc(F)c(Cl)c4)c3c2)nn1 [Example 847] | 170 nM |
| CCN(CC1CCN(C(=O)c2cccnc2)CC1)c1cc(Cl)c2ncc(C#N)c(Nc3ccc(F)c(Cl)c3)c2c1 [Example 848] | 380 nM |
| CN1CCC(CNc2cc(Cl)c3ncc(C#N)c(Nc4ccc(F)c(Cl)c4)c3c2)CC1 [Example 849] | 1910 nM |
| N#Cc1cnc2c(Cl)cc(NCC3CCN(C(=O)c4cccnc4)CC3)cc2c1Nc1ccc(F)c(Cl)c1 [Example 850] | 130 nM |
| CN(C)C(=O)Cn1cc(CN(C)c2cc(Cl)c3ncc(C#N)c(Nc4ccc(F)c(Cl)c4)c3c2)nn1 [Example 851] | 150 nM |
| N#Cc1cnc2c(Cl)cc(NCc3cn(CCCN4C(=O)c5ccccc5C4=O)nn3)cc2c1Nc1ccc(F)c(Cl)c1 [Example 852] | 120 nM |
| CS(=O)(=O)NCCNc1cc(Cl)c2ncc(C#N)c(Nc3ccc(F)c(Cl)c3)c2c1 [Example 853] | 880 nM |
| N#Cc1cnc2c(Cl)cc(NCCNS(=O)(=O)c3ccccc3)cc2c1Nc1ccc(F)c(Cl)c1 [Example 854] | 1960 nM |
| N#Cc1cnc2c(Cl)cc(NCCNS(=O)(=O)c3cccnc3)cc2c1Nc1ccc(F)c(Cl)c1 [Example 855] | > 3000 nM |
| N#Cc1cnc2c(Cl)cc(NCCNS(=O)(=O)c3ccccn3)cc2c1Nc1ccc(F)c(Cl)c1 [Example 856] | 820 nM |
| N#Cc1cnc2c(Cl)cc(NCCNS(=O)(=O)Cc3ccccn3)cc2c1Nc1ccc(F)c(Cl)c1 [Example 857] | 670 nM |
| N#Cc1ccc(S(=O)(=O)NCCNc2cc(Cl)c3ncc(C#N)c(Nc4ccc(F)c(Cl)c4)c3c2)cc1 [Example 858] | 790 nM |
| N#Cc1cnc2c(Cl)cc(NCCNC(=O)c3ccccn3)cc2c1Nc1ccc(F)c(Cl)c1 [Example 859] | > 3000 nM |
| N#Cc1cnc2c(Cl)cc(NCCNC(=O)c3cccnc3)cc2c1Nc1ccc(F)c(Cl)c1 [Example 860] | > 3000 nM |
| N#Cc1cnc2c(Cl)cc(NCCNC(=O)Cc3ccccn3)cc2c1Nc1ccc(F)c(Cl)c1 [Example 861] | > 3000 nM |
| N#Cc1cnc2c(Cl)cc(NCCNC(=O)Cc3cccnc3)cc2c1Nc1ccc(F)c(Cl)c1 [Example 862] | > 3000 nM |
| N#Cc1cnc2c(Cl)cc(NCCNC(=O)Cc3ccncc3)cc2c1Nc1ccc(F)c(Cl)c1 [Example 863] | 1040 nM |
